From patent publication US10745370B2, “Farnesyl transferase inhibitors and uses thereof” (MACKAY MEMORIAL HOSPITAL, priority 2016, dated 2020)
Values joined by “and” are separate entries in the source; they are usually repeats but may differ in a detail not shown here. Equal values may be shown once. “Also recorded” adds a separate entry of the source.

Assays:
rat PFTase = molecular target: T1, rat PFTase (Rattus norvegicus, UniProt Q02293+Q04631); assay: Inhibition of farnesyl transferase (fluorescence assay); format: biochemical; conditions: mean ± SD of three independent experiments
T1 construct: purchased Jena Biosciences
Method: The assay was carried out in 384-well microplates with a final volume of 20 μl by the method modified from the previous report (Long et al., 2009). Briefly, 10 nM of rat PFTase (Jena Biosciences, Jena, Germany) was incubated with the tested compound or DMSO (1%) for 15 min, and then the mixture was added in a solution (50 mM Tris-HCl, pH 7.5, 5 mM MgCl2, 5 mM DTT, 0.1 mM ZnCl2, 0.2% octyl-β-D-glucopyranoside (Sigma, St. Louis, Mo.), 10 μM PFTase substrate dansyl-Gly-Cys-Val-Leu-Ser-OH, and 10 μM farnesyl pyrophosphate (Sigma, St. Louis, Mo.)) to initiate the reaction. The reaction was incubated at 37° C. for 30 min, and the fluorescence was detected by a M5 plate reader (Molecular Devices, CA, USA) at 340 nm excitation and 505 nm emission.

dendritic cells [1] = assay: Cell marker expression on dendritic cells, flow cytometry; format: cell-based, human; conditions: 10 μM; for expression of CD1a, differentiation marker of dendritic cells: FIG. 9; for expression of CD83, maturation marker of dendritic cells: FIG. 10
Method: (§1) Mononuclear cells (MNCs) were separated from the peripheral blood of healthy donors obtained with written consent by use of Ficoll-Hypaque density centrifugation, followed by positive selection with magnetic anti-CD14 microbeads.
(§2) The isolated CD14^+ cells were cultivated in Minimum Essential Medium (MEM medium) supplemented with 10% fetal bovine serum (FBS), 100 ng/ml granulocyte-macrophage colony-stimulating factor (GM-CSF, Gentaur), and 50 ng/ml interleukin-4 (IL-4, R&D), and kept in an environment of 37° C. with 5% CO2/95% air.
(§3) To evaluate the effects of the present compound on dendritic cells, the CD14^+ cells were respectively treated with 10 μM of test compound (i.e., Mib-5, Mib-6, Mib-7, Mib-8, Mib-9, and Mib-10) on day 1. Then, on day 3, the cultured medium in each well was replenished by adding half the volume of the cultured medium containing the same treatment as indicated above. Then, on day 6, a cytokine cocktail containing IL-1, IL-6, and tumor necrosis factor-α (TNF-α) was added to induce maturation. On day 7, the differentiated dendritic cells were collected and subjected to further assays, including viability assay, morphology observation, and cell marker staining.
(§4) The expression of various types of cell markers, such as CD14, CD206, and CD80 expressed on the surface of macrophages, and CD1a, CD14, CD83, and HLA-DR expressed on the dendritic cells, were respectively detected by fluorescein isothiocyanate (FITC) and phycoerythrin (PE)-conjugated monoclonal antibodies in FACS caliber flowcytometer. Monoclonal antibodies used in this examples included anti-CD14 (IgG-FITC), anti-CD206 (IgG-FITC), anti-CD80-PE, anti-CD1a-PE, anti-CD83-PE and anti-human leukocyte antigen (HLA)-DR-PE. Results were analyzed by CellQuest software.
(§5) In this example, the effects of the present compounds on dendritic cells were investigated. Briefly, the dendritic cells were respectively treated with 10 μM of Mib-5, Mib-6, Mib-7, Mib-8, or Mib-10. Seven days later, the cells were harvested and subjected to analysis of morphology observation, cell viability, and/or cell marker expression.

macrophages [2] = assay: Cell marker expression on macrophages (total), flow cytometry; format: cell-based, human; conditions: for total expressed level of CD14: FIG. 3; for level of CD206: FIG. 5; for total level of CD80: compared with the control
Method: as §1, §2, §3
(§6) As to the effects of the present compound on macrophages, the CD14^+ cells were cultivated and treated as indicated above except the addition of cytokine cocktail on day 6. The macrophages were collected on day 6 and subjected to further assays, including viability assay, trypan blue exclusion test, morphology observation, cell marker staining, and phagocytotic activity analysis.
as §4

macrophages [3] = assay: Trypan blue exclusion test on macrophages; format: cell-based; conditions: trypan blue analysis, FIG. 2
Method: as §1, §2, §3, §6
(§7) The dye exclusion test is used to determine the number of viable cells present in a cell suspension. […] In this test, the cells were first treated with a test compound (i.e., Mib-5, 6, 7, 8, 9 or 10) for a certain period of time (e.g., 72 hours), then the cells were harvested and re-suspended in suitable buffer solution. The cell suspension was then mixed with trypan blue dye and then visually examined to determine whether cells had taken up or excluded the dye. A viable cell will have a clear cytoplasm, whereas a nonviable cell will have a blue cytoplasm. The concentration required to reduce viability by 50% (IC50) after 72 hours was extrapolated from the dose-response curves by different concentrations of the test compound using a second-order polynomial regression model and analyzing with SigmaPlot Software (Systat Software Inc., San Jose, Calif.).

M2 macrophages [4] = assay: Cell marker expression on M2 macrophages, flow cytometry; format: cell-based, human; conditions: for CD14: M2 population after treatment: Table 5; for CD80 expression on M2 macrophages: control 47.64%; for CD14 expression on M2 macrophages: control 55.66%; for CD206 expression on M2 macrophages: control 74.49%; for CD80: change in M2 population: Table 6
Method: (§8) M1 differentiation of freshly isolated CD14^+ cells was induced by the addition of lipopolysaccharide (LPS), while M2 differentiation of freshly isolated CD14^+ cells was induced by the addition of IL-4. Then, the present compounds (e.g., Mib-5, 6, 7, 8, 9, or 10) were added at the indicated dosages. 6 days later, the population of the differentiated macrophages were then determined by cell viability analysis.
as §4

M1 macrophages [5] = assay: Cell marker expression on M1 macrophages, flow cytometry; format: cell-based, human; conditions: for CD14: M1 population after treatment: Table 5; for CD80: change in M1 population: Table 6; for CD206: change in M1: Table 7; for CD206 expression on M1 macrophages: control 14.27%; for CD80 expression on M1 macrophages: control 71.34%; for CD14 expression on M1 macrophages: control 99.83%
Method: as §8, §4

dendritic cells [6] = assay: Morphology of dendritic cells by Liu's staining; format: cell-based, human; conditions: 10 μM, seven days, FIG. 8
Method: as §1, §2, §3
(§9) Cells were transferred to a glass coverslide and covered with solution A (0.5 g of methylene blue and 1.7 g of Eosin yellow dissolved in 1,000 ml of ethanol). After 45 seconds, solution B (1.3 g of azure, 1.4 g of methylene blue, 23.38 g of Na2HPO4, 6.5 g of KH2PO4, dissolved in 1,000 ml of distilled water) was added in the proportion of 2 parts of B to 1 part of A. Mixed the solutions well by blowing the surface. The slide was left standing for 90 seconds and then washed off the staining solution rapidly by running water. The morphology of stained cells was then examined under microscope.
as §5

macrophages [7] = assay: Morphology of macrophages (photographs, Liu's staining); format: cell-based, human; conditions: for morphology of cells by Liu's staining compared with control cells: FIG. 1 panel C; for cells exhibiting adhesive morphology: FIG. 1 panel A
Method: as §1, §2, §3, §6, §9

M2 macrophages [8] = assay: Differentiation analysis, cell viability of M2 macrophages; format: cell-based, human; conditions: for Cell viability of M2 macrophages: IL-4-induced M2 differentiation, 6 days, control 100%
Method: as §8, with “analysis. The cell viability was measured by cell counting kit-8 (CCK-8, Sigma). The half maximal inhibitory concentrations (IC50) of the test compounds on macrophages or dendritic cells were calculated.” for “analysis.”

macrophages [9] = assay: Phagocytosis assay with fluorescent latex beads; format: cell-based, human; conditions: M1 and/or M2 populations, FIG. 6
Method: as §6
The phagocytic activity of macrophages was measured by using flow cytometric analysis. The green fluorescent latex beads (carboxylate-modified beads with diameter 2 μm) were suspended in PBS solution and added into macrophage culture for 2 hours with vortexa at 37° C. The macrophages were subjected to flow cytometry for measurement of fluorescent intensity

M1 macrophages [10] = assay: Differentiation analysis, cell viability of M1 macrophages; format: cell-based, human; conditions: for Cell viability of M1 macrophages: LPS-induced M1 differentiation, 6 days, control 100%
Method: as §8, with “analysis. The cell viability was measured by cell counting kit-8 (CCK-8, Sigma). The half maximal inhibitory concentrations (IC50) of the test compounds on macrophages or dendritic cells were calculated.” for “analysis.”

dendritic cells [11] = assay: Trypan blue exclusion analysis of dendritic cells; format: cell-based, human; conditions: 10 μM, seven days, FIG. 7
Method: as §1, §2, §3, §7, §5

SMILES	IC50 (rat PFTase)	expression of CD1a, differentiation marker of dendritic cells (dendritic cells [1])	expression of CD83, maturation marker of dendritic cells (dendritic cells [1])	total expressed level of CD14 (macrophages [2])	level of CD206 (macrophages [2])	total level of CD80 (macrophages [2])	cell viability / cytotoxicity toward macrophages (macrophages [3])	CD14: M2 population after treatment (M2 macrophages [4])	CD80 expression on M2 macrophages (M2 macrophages [4]) [%]	CD14 expression on M2 macrophages (M2 macrophages [4]) [%]	CD206 expression on M2 macrophages (M2 macrophages [4]) [%]	CD14: M1 population after treatment (M1 macrophages [5])	CD206 expression on M1 macrophages (M1 macrophages [5]) [%]	CD80 expression on M1 macrophages (M1 macrophages [5]) [%]	CD14 expression on M1 macrophages (M1 macrophages [5]) [%]	dendritic cell morphology compared with control group (dendritic cells [6])	morphology of cells by Liu's staining compared with control cells (macrophages [7])	Cell viability of M2 macrophages (M2 macrophages [8]) [%]	phagocytic activity compared with control (macrophages [9])	Cell viability of M1 macrophages (M1 macrophages [10]) [%]	also measured
CSCC[C@H](NC(=O)c1ccc(NC(=O)[C@@H](N)CS)cc1)C(=O)O [FTase Inhibitor II, reference compound]	0.13 ± 0.03 µM	–	–	–	–	–	–	–	–	–	–	–	–	–	–	–	–	–	–	–	–
COC1=CC(=O)[C@@]2(c3cc(=O)c4c(O)cc(OC)cc4o3)[C@H](C[C@]3(C)[C@@H](C(=O)O)CC=C4[C@H]3CCCC4(C)C)C(C)=CC[C@H]2C1=O [Mib-6]	< 10 µM and 4.97 µM	inhibited	inhibited	not affected	increase	significantly reduced	slight toxicity; also recorded: no significant cytotoxicity	significant decrease	41.4	91.25	77.78	remained relatively unchanged	4.52	6.59	86.43	cell death reflected in morphology changes, and less dendritic process	not significantly affected	90.6	not	57.2	CD206: change in M2 (M2 macrophages [4]; Table 7): increase; CD80: change in M1 population (M1 macrophages [5]): reduction; CD206: change in M1 (M1 macrophages [5]): significant decrease; morphology and adhesion of treated macrophages (macrophages [7]; 10 μM, FIG. 1 panel B): became rounded up, and were less adhesive; change in M2 population of macrophages compared with control (M2 macrophages [8]; Table 4): slight decrease; change in M1 population of macrophages compared with control (M1 macrophages [10]; Table 4): significant reduction; levels of viable dendritic cells (dendritic cells [11]): reduced
COC1=CC(=O)[C@@]2(c3cc(=O)c4c(O)cc(O)cc4o3)[C@H](CC=C(C)[C@@H]2C[C@]2(C)[C@@H](C(=O)O)CC=C3[C@H]2CCCC3(C)C)C1=O [Mib-8]	< 10 µM and 5.05 µM	not	not affected	not affected	increase	increased	did not adversely affect cell viability; also recorded: no significant cytotoxicity	significant decrease	56.66	62.34	51.05	remained relatively unchanged	11.98	60.16	99.73	did not cause any significant changes	not significantly affected	100	reduced	79.4	increase of total level of CD80 as compared with the control (macrophages [2]): about 2 folds; CD80: change in M2 population (M2 macrophages [4]): increase; CD80: change in M1 population (M1 macrophages [5]): reduction; CD206: change in M1 (M1 macrophages [5]): significant decrease; cells exhibiting adhesive morphology (macrophages [7]; 10 μM): about 20%; change in M2 population of macrophages compared with control (M2 macrophages [8]; Table 4): no effect; reduction in the M1 population (M1 macrophages [10]; compared with control, Table 4): about 20%; levels of viable dendritic cells (dendritic cells [11]): remained relatively unchanged
COC1=CC(=O)[C@@]2(c3cc(=O)c4ccc(O)cc4o3)[C@H](C[C@]3(C)[C@@H](C(=O)O)CC=C4[C@H]3CCCC4(C)C)C(C)=CC[C@H]2C1=O [Mib-9]	~47 µM and 47 µM	–	–	–	–	–	–	–	–	–	–	–	–	–	–	–	–	–	–	–	–
COC1=CC(=O)[C@@]2(c3cc(=O)c4ccc(O)cc4o3)[C@H](CC=C(C)[C@@H]2C[C@]2(C)[C@@H](C(=O)O)CC=C3[C@H]2CCCC3(C)C)C1=O [Mib-10]	~28 µM and 27.9 µM	not	not affected	not affected	increase	increased	did not adversely affect cell viability; also recorded: no significant cytotoxicity	significant decrease	59.89	57.93	68.80	remained relatively unchanged	15.17	84.46	99.10	did not cause any significant changes	not significantly affected	145.5	reduced	82.5	increase of total level of CD80 as compared with the control (macrophages [2]): about 2 folds; CD80: change in M2 population (M2 macrophages [4]): increase; cells exhibiting adhesive morphology (macrophages [7]; 10 μM): about 20%; increase of M2 population (M2 macrophages [8]; compared with control, Table 4): about 40%; change in M1 population of macrophages compared with control (M1 macrophages [10]; Table 4): decrease; levels of viable dendritic cells (dendritic cells [11]): remained relatively unchanged
